Patent US6737383B1, “Herbicidal oxadiazolidines” (priority 1999, dated 2004)

Tests used:
[1] = tested on: bedstraw; experiment: Test B pre/postemergence bedstraw; assay type: in vivo, Galium aparine; settings: Preemergence
In short: (§1)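 Herbicidal effect was estimated by eye on a ten-point control scale after plants spent twelve to sixteen days in a greenhouse following soil or foliar treatment. Foliar sprays targeted plants at one to four leaves; all doses were formulated in a non-phytotoxic solvent with surfactant.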

[2] = tested on: blackgrass; experiment: Test B pre/postemergence blackgrass; assay type: in vivo, Alopecurus myosuroides
In short: as §1

[3] = tested on: surinam grass; experiment: Test B pre/postemergence surinam grass; assay type: in vivo, Brachiaria decumbens
In short: as §1

[4] = tested on: cocklebur; experiment: Test B pre/postemergence cocklebur; assay type: in vivo, Xanthium strumarium
In short: as §1

[5] = tested on: corn; experiment: Test B pre/postemergence corn; assay type: in vivo, Zea mays
In short: as §1

[6] = tested on: crabgrass; experiment: Test B pre/postemergence crabgrass; assay type: in vivo, Digitaria sanguinalis
In short: as §1

[7] = tested on: giant foxtail; experiment: Test B pre/postemergence giant foxtail; assay type: in vivo, Setaria faberii
In short: as §1

[8] = tested on: morningglory; experiment: Test B pre/postemergence morningglory; assay type: in vivo, Ipomoea hederacea
In short: as §1

[9] = tested on: pigweed; experiment: Test B pre/postemergence pigweed; assay type: in vivo, Amaranthus retroflexus
In short: as §1

[10] = tested on: rape; experiment: Test B pre/postemergence rape; assay type: in vivo, Brassica napus
In short: as §1

[11] = tested on: soybean; experiment: Test B pre/postemergence soybean; assay type: in vivo, Glycine max
In short: as §1

[12] = tested on: sugar beet; experiment: Test B pre/postemergence sugar beet; assay type: in vivo, Beta vulgaris
In short: as §1

[13] = tested on: velvetleaf; experiment: Test B pre/postemergence velvetleaf; assay type: in vivo, Abutilon theophrasti
In short: as §1

[14] = tested on: wheat; experiment: Test B pre/postemergence wheat; assay type: in vivo, Triticum aestivum
In short: as §1

[15] = tested on: wild oat; experiment: Test B pre/postemergence wild oat; assay type: in vivo, Avena fatua
In short: as §1

[16] = tested on: purple nutsedge; experiment: Test B pre/postemergence purple nutsedge; assay type: in vivo, Cyperus rotundus
In short: as §1

[17] = Postemergence, Rate 62 g/ha, scale 0 to 10, 0 is no effect, 10 is complete control
[18] = Postemergence, Rate 125 g/ha, scale of 0 to 10 where 0 is no effect and 10 is complete control
[19] = Postemergence, Rate 250 g/ha, scale of 0 to 10, 0 is no effect, 10 is complete control
[20] = Preemergence, Rate 62 g/ha, scale of 0 to 10 where 0 is no effect and 10 is complete control
[21] = Preemergence, Rate 125 g/ha, scale of 0 to 10 where 0 is no effect and 10 is complete control
[22] = Preemergence, Rate 250 g/ha, scale 0 to 10 (0 no effect, 10 complete control)
[23] = Preemergence, Rate 500 g/ha, scale of 0 to 10 where 0 is no effect and 10 is complete control
[24] = Rate 500 g/ha, Postemergence, scale 0 to 10, 0 is no effect, 10 is complete control

## CC(C)N(C(=O)n1oc(=O)n(Cc2nnc(Cl)s2)c1=O)c1ccc(Cl)cc1 [Compound 653]
[1]; Rate 62 g/ha, scale of 0 to 10 where 0 is no effect and 10 is complete control
  Bedstraw plant response rating: 0
[1]; Rate 125 g/ha, scale of 0 to 10 where 0 is no effect and 10 is complete control
  Bedstraw plant response rating: 0
[1]; Rate 250 g/ha, scale 0 to 10 (0 no effect, 10 complete control)
  Plant response rating, Bedstraw: 0
[1]; Rate 500 g/ha, scale of 0 to 10 where 0 is no effect and 10 is complete control
  Plant response rating, Bedstraw: 0
[2]; [17]
  Plant response rating, Blackgrass: 0
[2]; [18]
  Blackgrass plant response rating: 0
[2]; [19]
  Blackgrass plant response rating: 0
[2]; [20]
  Blackgrass plant response rating: 0
[2]; [21]
  Blackgrass plant response rating: 0
[2]; [22]
  Plant response rating, Blackgrass: 0
[2]; [23]
  Plant response rating, Blackgrass: 0
[2]; [24]
  Blackgrass plant response rating: 0
[3]; [17]
  Plant response rating, B. signalgrass: 0
[3]; [18]
  Plant response rating, B. signalgrass: 0
[3]; [19]
  B. signalgrass plant response rating: 0
[3]; [20]
  B. signalgrass plant response rating: 0
[3]; [21]
  B. signalgrass plant response rating: 0
[3]; [22]
  Plant response rating, B. signalgrass: 0
[3]; [23]
  Plant response rating, B. signalgrass: 0
[3]; [24]
  B. signalgrass plant response rating: 2
[4]; [17]
  Plant response rating, Cocklebur: 0
[4]; [18]
  Cocklebur plant response rating: 0
[4]; [19]
  Cocklebur plant response rating: 0
[4]; [20]
  Cocklebur plant response rating: 0
[4]; [22]
  Plant response rating, Cocklebur: 0
[4]; [23]
  Plant response rating, Cocklebur: 0
[4]; [24]
  Cocklebur plant response rating: 0
[5]; [17]
  Plant response rating, Corn: 0
[5]; [18]
  Corn plant response rating: 0
[5]; [19]
  Corn plant response rating: 0
[5]; [20]
  Corn plant response rating: 0
[5]; [21]
  Corn plant response rating: 0
[5]; [22]
  Plant response rating, Corn: 0
[5]; [23]
  Plant response rating, Corn: 0
[5]; [24]
  Corn plant response rating: 0
[6]; [17]
  Plant response rating, Crabgrass: 0
[6]; [18]
  Crabgrass plant response rating: 0
[6]; [19]
  Crabgrass plant response rating: 0
[6]; [20]
  Crabgrass plant response rating: 0
[6]; [21]
  Crabgrass plant response rating: 2
[6]; [22]
  Plant response rating, Crabgrass: 6
[6]; [23]
  Plant response rating, Crabgrass: 8
[6]; [24]
  Crabgrass plant response rating: 2
[7]; [17]
  Plant response rating, Giant foxtail: 0
[7]; [18]
  Giant foxtail plant response rating: 0
[7]; [19]
  Giant foxtail plant response rating: 2
[7]; [20]
  Giant foxtail plant response rating: 0
[7]; [21]
  Giant foxtail plant response rating: 0
[7]; [22]
  Plant response rating, Giant foxtail: 2
[7]; [23]
  Plant response rating, Giant foxtail: 8
[7]; [24]
  Giant foxtail plant response rating: 7
[8]; [17]
  Plant response rating, Morningglory: 0
[8]; [18]
  Morningglory plant response rating: 1
[8]; [19]
  Morningglory plant response rating: 1
[8]; [20]
  Morningglory plant response rating: 0
[8]; [21]
  Morningglory plant response rating: 0
[8]; [22]
  Plant response rating, Morningglory: 0
[8]; [23]
  Plant response rating, Morningglory: 0
[8]; [24]
  Morningglory plant response rating: 1
[9]; [17]
  Plant response rating, Redroot pigweed: 0
[9]; [18]
  Redroot pigweed plant response rating: 0
[9]; [20]
  Redroot pigweed plant response rating: 0
[9]; [21]
  Redroot pigweed plant response rating: 0
[9]; [22]
  Plant response rating, Redroot pigweed: 0
[9]; [23]
  Plant response rating, Redroot pigweed: 3
[9]; [24]
  Redroot pigweed plant response rating: 0
[10]; [17]
  Plant response rating, Rape: 0
[10]; [18]
  Rape plant response rating: 0
[10]; [20]
  Rape plant response rating: 0
[10]; [21]
  Rape plant response rating: 0
[10]; [22]
  Plant response rating, Rape: 0
[10]; [23]
  Plant response rating, Rape: 0
[10]; [24]
  Rape plant response rating: 0
[11]; [17]
  Plant response rating, Soybean: 0
[11]; [18]
  Soybean plant response rating: 0
[11]; [20]
  Soybean plant response rating: 0
[11]; [21]
  Soybean plant response rating: 0
[11]; [22]
  Plant response rating, Soybean: 0
[11]; [23]
  Plant response rating, Soybean: 0
[11]; [24]
  Soybean plant response rating: 0
[12]; [17]
  Plant response rating, Sugarbeets: 0
[12]; [18]
  Sugarbeets plant response rating: 0
[12]; [20]
  Sugarbeets plant response rating: 0
[12]; [21]
  Sugarbeets plant response rating: 0
[12]; [22]
  Plant response rating, Sugarbeets: 0
[12]; [23]
  Plant response rating, Sugarbeets: 0
[12]; [24]
  Sugarbeets plant response rating: 0
[13]; [17]
  Plant response rating, Velvetleaf: 0
[13]; [18]
  Velvetleaf plant response rating: 0
[13]; [20]
  Velvetleaf plant response rating: 0
[13]; [21]
  Velvetleaf plant response rating: 0
[13]; [22]
  Plant response rating, Velvetleaf: 0
[13]; [23]
  Plant response rating, Velvetleaf: 0
[13]; [24]
  Velvetleaf plant response rating: 0
[14]; [17]
  Plant response rating, Wheat: 0
[14]; [18]
  Wheat plant response rating: 0
[14]; [20]
  Wheat plant response rating: 0
[14]; [21]
  Wheat plant response rating: 0
[14]; [22]
  Plant response rating, Wheat: 0
[14]; [23]
  Plant response rating, Wheat: 0
[14]; [24]
  Wheat plant response rating: 0
[15]; [17]
  Plant response rating, Wild oats: 0
[15]; [18]
  Wild oats plant response rating: 0
[15]; [20]
  Wild oats plant response rating: 0
[15]; [21]
  Wild oats plant response rating: 0
[15]; [22]
  Plant response rating, Wild oats: 0
[15]; [23]
  Plant response rating, Wild oats: 2
[15]; [24]
  Wild oats plant response rating: 0
[16]; [17]
  Plant response rating, Nutsedge: 0
[16]; [18]
  Nutsedge plant response rating: 0
[16]; [20]
  Nutsedge plant response rating: 0
[16]; [23]
  Plant response rating, Nutsedge: 0
[16]; [24]
  Nutsedge plant response rating: 0
